≈ marks a conversion by molar mass, not a printed value. Counter-ions that a name gives are not always drawn.
Assays:
E coli NCTC 10418 = assay: antibacterial activity (MIC); assay type: cell-based; conditions: Escherichia coli, NCTC10418; Table 2; gram negative organism E. coli NCTC 10418
Staph aureus Oxford = assay: antibacterial activity (MIC); assay type: cell-based; conditions: Staphylococcus aureus; Table 2; gram positive organism Staph. aureus Oxford; read-out: MIC

SMILES: CC1(C)S[C@@H]2[C@H](NC(=O)[C@H](NC(=O)c3cnc(NCCCc4ccccc4)nc3O)c3ccccc3)C(=O)N2[C@H]1C(=O)O [Example 3, 6β-[D-2-(2-(3-phenylpropyl-1-amino)-4-hydroxypyrimidine-5-carbonylamino)-2-phenyl] acetamido penicillanic acid]
- MIC (E coli NCTC 10418): 5 µg/mL (≈ 8.27 µM)
- MIC (Staph aureus Oxford): 1.2 µg/mL (≈ 1.98 µM)

SMILES: CC1(C)S[C@@H]2[C@H](NC(=O)[C@H](NC(=O)c3cnc(NCc4ccccc4)nc3O)c3ccc(O)cc3)C(=O)N2[C@H]1C(=O)O [Example 4, 6β-[D-2-(2-Benzylamino-4-hydroxypyrimidine-5-carbonylamino)-2-(4-hydroxyphenyl)] acetamido penicillanic acid disodium salt]
- MIC (E coli NCTC 10418): 5 µg/mL
- MIC (Staph aureus Oxford): 1.25 µg/mL

SMILES: CC1(C)S[C@@H]2[C@H](NC(=O)[C@H](NC(=O)c3cnc(NCCc4ccccc4)nc3O)c3ccc(O)cc3)C(=O)N2[C@H]1C(=O)O [Example 5, 6β-[D-2-(2-(2-phenylethyl-1-amino)-4-hydroxypyrimidine-5-carbonylamino)-2-(4-hydroxyphenyl)] acetamido penicillanic acid]
- MIC (E coli NCTC 10418): 5 µg/mL (≈ 8.24 µM)
- MIC (Staph aureus Oxford): 1.2 µg/mL (≈ 1.98 µM)

SMILES: CC1(C)S[C@@H]2[C@H](NC(=O)[C@H](NC(=O)c3cnc(NCc4ccc(Cl)cc4)nc3O)c3ccccc3)C(=O)N2[C@H]1C(=O)O [Example 6, 6β-D-[2-(2-[4Chlorobenzylamino]-4-hydroxypyrimidine-5-carbonylamino)-2-phenyl] acetamido penicillanic acid]
- MIC (E coli NCTC 10418): 5 µg/mL (≈ 8.18 µM)
- MIC (Staph aureus Oxford): 0.2 µg/mL (≈ 0.327 µM)

SMILES: CC1(C)S[C@@H]2[C@H](NC(=O)[C@H](NC(=O)c3cnc(NCc4ccc(S(N)(=O)=O)cc4)nc3O)c3ccccc3)C(=O)N2[C@H]1C(=O)O [Example 7, 6β-[D-2-(2-[4-sulphonamidobenzylamino]-4-hydroxypyrimidine-5-carbonylamino)-2-phenyl]acetamido penicillanic acid, disodium salt]
- MIC (E coli NCTC 10418): 10 µg/mL
- MIC (Staph aureus Oxford): 2.5 µg/mL

SMILES: COc1cc(CNc2ncc(C(=O)N[C@@H](C(=O)N[C@@H]3C(=O)N4[C@@H]3SC(C)(C)[C@@H]4C(=O)O)c3ccccc3)c(O)n2)ccc1O [Example 8, 6β-[D-2-(2[4-Hydroxy-3-methoxybenzylamino]-4-hydroxypyrimidine-5-carbonylamino)-2-phenyl] acetamido penicillanic acid, disodium salt]
- MIC (E coli NCTC 10418): 10 µg/mL
- MIC (Staph aureus Oxford): 1.2 µg/mL

SMILES: COc1ccc(CNc2ncc(C(=O)N[C@@H](C(=O)N[C@@H]3C(=O)N4[C@@H]3SC(C)(C)[C@@H]4C(=O)O)c3ccccc3)c(O)n2)cc1 [Example 9, 6β-[D-2-(2-[4-Methoxybenzylamino]-4-hydroxypyrimidine-5-carbonylamino)-2-phenyl] acetamido penicillanic acid, disodium salt]
- MIC (E coli NCTC 10418): 5 µg/mL
- MIC (Staph aureus Oxford): 0.25 µg/mL

SMILES: CC1(C)S[C@@H]2[C@H](NC(=O)[C@H](NC(=O)c3cnc(NCc4ccco4)nc3O)c3ccccc3)C(=O)N2[C@H]1C(=O)O [Example 10, 6β-[D-2-(2-Furfurylamino-4-hydroxypyrimidine-5-carbonylamino)-2-phenyl] acetamido penicillanic acid, disodium salt]
- MIC (E coli NCTC 10418): 5 µg/mL
- MIC (Staph aureus Oxford): 1.2 µg/mL

SMILES: CNc1ncc(C(=O)N[C@@H](C(=O)N[C@@H]2C(=O)N3[C@@H]2SC(C)(C)[C@@H]3C(=O)O)c2ccccc2)c(O)n1 [Example 11, 6β-D-2-(2-Methylamino-4-hydroxypyrimidine-5-carbonylamino)-2-phenyl] acetamido penicillanic acid, disodium salt]
- MIC (E coli NCTC 10418): 25 µg/mL
- MIC (Staph aureus Oxford): 2.5 µg/mL

SMILES: COCCCNc1ncc(C(=O)N[C@@H](C(=O)N[C@@H]2C(=O)N3[C@@H]2SC(C)(C)[C@@H]3C(=O)O)c2ccccc2)c(O)n1 [Example 12, 6β-[D-2-(2-[3-methoxypropyl-1-amino]-4-hydroxypyrimidine-5-carbonylamino)-2-phenyl] acetamido penicillanic acid, disodium salt]
- MIC (E coli NCTC 10418): 5 µg/mL
- MIC (Staph aureus Oxford): 1.2 µg/mL

Reference: patent US4447422A, “Penicillins and compositions containing them” (Beecham Group p.1.c., priority 1981, dated 1984)
